From paper PMC10743653, “Combined In Silico and In Vitro Analyses to Assess the Anticancer Potential of Thiazolidinedione–Thiosemicarbazone Hybrid Molecules” (International Journal of Molecular Sciences, 2023)

Tests used:
T98G cells = assay: MTT assay, T98G; format: cell-based, human; conditions: for IC50: Homo sapiens, T98G, MTT, 24 h treatment, mean ± SD; for SI (selectivity index): IC50 CCD 841 CoTr divided by IC50 T98G
Procedure: (§1) The effects of TZD–TSCs 2–5 on the cellular viability of a panel of cell lines were investigated through an 3-(4,5-dimethylthiazol-2-yl)-2,5-diphenyl-2H-tetrazolium bromide (MTT) assay, following a 24 h treatment with the compounds. The panel consisted of three solid tumor cells: T98G (glioblastoma multiforme), HepG2 (hepatocellular carcinoma, epithelial), and HT29 (colon adenocarcinoma, epithelial), as well as noncancerous cells CCD 841 CoTr (normal colon, epithelial).
(§2) Primary single dose screenings of TZD–TSCs 2–5 were performed at a concentration of 200 μg/mL, and those that elicited a greater than 80% inhibition of cell proliferation were analyzed at several concentrations, to find their half-maximal inhibitory concentration (IC50). The IC50 values, reported as the mean ± SD in Table 2, indicate the concentration of the tested compound that inhibits the growth/viability of the cancer cell population by 50%. In this specific case of an MTT assay, which measures the activity of mitochondrial dehydrogenases (as an indicator of cell viability), the IC50 values stand for the concentration that inhibits the metabolic activity of cells by 50%.
(§3) Human colon adenocarcinoma cells, HT29 (ATCC no. HTB-38), derived from a grade I tumor, were cultured in roswell park memorial institute Medium (RPMI) 1640 medium, supplemented with 10% fetal calf serum (FCS) (GibcoTM, Paisley, UK) and antibiotics (100 U/mL penicillin and 100 μg/mL streptomycin) (Sigma, St. Louis, MO), at 37 °C in a humidified atmosphere with 5% CO2. Human normal colon epithelial cells, CCD 841 CoTr (ATCC no. CRL-1807), were cultured in RPMI 1640 + dulbecco’s modified eagle medium (DMEM) (1:1) medium (Sigma, St. Louis, MO), supplemented with 10% FCS and antibiotics, at 34 °C in a 5% CO2/95% air atmosphere. Human glioblastoma T98G cells were cultured in Dulbecco’s Modified Eagle’s Medium (DMEM) (Sigma Aldrich, St. Louis, MO, USA), supplemented with 10% fetal bovine serum (FBS), penicillin (100 U/mL), and streptomycin (100 μg/mL). Human hepatocellular carcinoma cells, HepG2, were maintained in Eagle’s Minimum Essential Medium, supplemented with 10% FBS, penicillin (100 U/mL), and streptomycin (100 μg/mL).
(§4) After 24 h of incubation of the cells with the tested compounds in 100 μL of culture medium, MTT solution (5 mg/mL, 25 μL/well) was added and incubated for an additional 3 h. The purple crystals of formazan which formed in the medium were solubilized overnight in 10% sodium dodecyl sulphate (SDS) in a 0.01 M HCl mixture. The product was quantified spectrophotometrically by measuring its absorbance at 570 nm using an Emax Microplate Reader (Molecular Devices Corporation, Menlo Park, CA, USA).

HepG2 cells = assay: MTT assay, HepG2; format: cell-based, human; conditions: for IC50: Homo sapiens, HepG2, MTT, 24 h treatment, mean ± SD; for SI (selectivity index): IC50 CCD 841 CoTr divided by IC50 HepG2
Procedure: as §1, §2, §3, §4

HT29 cells [1] = assay: MTT assay, HT29; format: cell-based, human; conditions: for IC50: Homo sapiens, HT-29, HT29, MTT, 24 h treatment, mean ± SD; for SI (selectivity index): IC50 CCD 841 CoTr divided by IC50 HT29
Procedure: as §1, §2, §3, §4

CCD 841 CoTr cells [2] = assay: MTT assay, normal colon epithelial cells; format: cell-based; conditions: Homo sapiens, CCD 841 CoTr (noncancerous), 24 h treatment, mean ± SD
Procedure: as §1, §2, §3, §4

CCD 841 CoTr cells [3] = assay: Nitric oxide measurement (Griess), CCD 841 CoTr; format: cell-based, human; conditions: 200 μg/mL
Procedure: (§5) Nitrate, i.e., a stable end product of NO, was measured in culture supernatants with a spectrophotometric method based on the Griess reaction. Culture supernatants were collected from the cell cultures treated with specific concentrations of the tested compounds (25, 75, 150, and 200 μg/mL, respectively). Briefly, 100 μL of the culture supernatant was placed in 96-well flat-bottomed plates in triplicate and incubated with 100 μL of Griess reagent (1% sulfanilamide/0.1% N-(1-naphthyl)ethylenediamine dihydrochloride) in 3% H3PO4 at room temperature for 10 min. The optical density was measured at 550 nm using a microplate reader. A standard curve was prepared using 0.5–25 μM sodium nitrite (NaNO2) for calibration.

HT29 cells [4] = assay: Nitric oxide measurement (Griess), HT29; format: cell-based, human
Procedure: as §5

[5] = DPPH free radical scavenging test
Text: (§6) Antioxidant activity is a complex procedure, usually happening through several multiple or predominant chemical mechanisms (i.e., hydrogen atom transfer (HAT), single electron transfer (SET), and the ability to chelate transition metals), and it is influenced by many factors, which cannot be fully described with one single method. Therefore, it is important to perform more than one type of measurement to take into account the various mechanisms of antioxidant action. In this study, to assess the antioxidant activity of TZD–TSCs 2–5, two complementary tests were used: a DPPH (2,2-diphenyl-1-picrylhydrazyl) free radical-scavenging ability assay, that detects the HAT and SET mechanisms, and a FRAP (ferric reducing antioxidant power) assay, that prefers the […] mechanism. The antioxidant powers of 2–5 were compared to standard antioxidants, such as the water-soluble synthetic analogue of vitamin E (Trolox) and ascorbic acid (vitamin C).
The free radical scavenging activity of […] was measured by the DPPH assay. Briefly, 100 μl of DPPH solution (0.2 mg/mL in ethanol) was added to 100 μL of the tested compound concentrations (25, 75, 150, and 200 μg/mL, respectively). Trolox, at increasing concentrations (1–50 μg/mL), was used as a standard. After 20 min of incubation at room temperature, the absorbances of the solutions were measured at 515 nm. The lower the absorbance, the higher the free radical scavenging activity of the compound. The activity of each compound was determined by comparing its absorbance with that of the standard.
The ability of the compounds to scavenge the DPPH radical was calculated by the following formula:DPPH scavenging effect (%) = [(Xcontrol − Xcompound/Xcontrol) × 100], where Xcontrol is the absorbance of the control and Xcompound is the absorbance in the presence of TZD-TSCs preparations.

[6] = Ferric-reducing antioxidant power (FRAP) assay
Text: as §6
Each compound concentration (25, 75, 150, and 200 μg/mL, respectively) was dissolved in Milli-Q water and mixed with an equal volume of 0.2 M sodium phosphate buffer (pH 6.6) and 1% potassium ferricyanide. The mixture was incubated for 30 min at 37 °C. Thereafter, 10% trichloroacetic acid (w/v) was added and the mixture was centrifuged at 1000 g for 5 min. One mL of the upper layer was mixed with an equal volume of Milli-Q water and 0.1% ferric chloride. The absorbance was read at 700 nm using an EL800 Universal Microplate Reader (BioTek Instruments, Winooski, VT, USA). Ascorbic acid (0–150 μg/mL) was used as a positive control.

CEM cells = system: CEM cells; design: method as in PMID 34006099; conditions: read-out: IC50, antiproliferative effects against CEM cells; cited from earlier work
PPARγ = system: PPARγ; design: method as in PMID 34006099; conditions: cited from earlier work
HDAC4 = system: HDAC4; design: method as in PMID 34006099; conditions: cited from earlier work

Structure (SMILES)	IC50 (T98G cells) [µM]	IC50 (HepG2 cells) [µM]	IC50 (HT29 cells [1]) [µM]	SI (selectivity index) (T98G cells)	SI (selectivity index) (HepG2 cells)	SI (selectivity index) (HT29 cells [1])	IC50 (CCD 841 CoTr cells [2]) [µM]	NO production, [NO2^−] (CCD 841 CoTr cells [3]) [µM]	NO production, [NO2^−] (HT29 cells [4]; HT29, 25 μg/mL)	DPPH reduction value corresponding to concentration of Trolox ([5]; compound at 25 μg/mL) [µg/mL]	DPPH reduction value corresponding to concentration of Trolox ([5]; compound at 75 μg/mL) [µg/mL]	DPPH reduction value corresponding to concentration of Trolox ([5]; compound at 150 μg/mL) [µg/mL]	DPPH reduction value corresponding to concentration of Trolox ([5]; compound at 200 μg/mL) [µg/mL]	FRAP reduction value corresponding to concentration of ascorbic acid ([6]; compound at 25 μg/mL) [µg/mL]	FRAP reduction value corresponding to concentration of ascorbic acid ([6]; compound at 75 μg/mL) [µg/mL]	FRAP reduction value corresponding to concentration of ascorbic acid ([6]; compound at 150 μg/mL) [µg/mL]	FRAP reduction value corresponding to concentration of ascorbic acid ([6]; compound at 200 μg/mL) [µg/mL]	other results
COc1cc([C@@H]2c3cc4c(cc3[C@@H](O[C@@H]3O[C@@H]5CO[C@@H](C)O[C@H]5[C@H](O)[C@H]3O)[C@H]3COC(=O)[C@H]23)OCO4)cc(OC)c1O [Etoposide, reference compound]	> 160	61.9 ± 2.97	161 ± 8.51	–	–	–	–	–	–	–	–	–	–	–	–	–	–	–
O=C(C=C1SC(=O)NC1=O)Oc1cccc(C=NNC(=S)Nc2ccccc2Cl)c1 [TZD–TSC 4]	42.4 ± 2.23	20.1 ± 1.19	117 ± 9.37	2.06	4.34	0.75	87.3 ± 5.06	0.639	0.558 µM	2.834	6.381	13.982	17.638	1.62	5.95	4.05	5.41	–
O=C(C=C1SC(=O)NC1=O)Oc1ccc(C=NNC(=S)Nc2ccc(Cl)cc2Cl)cc1 [TZD–TSC 5]	93.6 ± 3.45	13.9 ± 0.59	119 ± 10.7	0.79	5.35	0.62	74.2 ± 2.3	0.272	~ 0.272 μM	0.768	2.689	9.964	15.177	2.70	2.43	4.59	9.19	NO production, [NO2^−] (HT29 cells [4]; HT29, 200 μg/mL): ~ 0.272 μM
O=C(COc1ccc2cc(/C=C3/SC(=O)NC3=O)ccc2c1)Nc1c(F)cc(F)cc1Br [compound 1]	–	–	–	–	–	–	–	–	–	–	–	–	–	–	–	–	–	IC50 (CEM cells): 9.6 µM; Activity toward PPARγ (PPARγ): low micromolar concentration; Activity toward HDAC4 (HDAC4): low micromolar concentration
